Blank lines part the entries; values can stand above or below the compound they belong to.
Key:
Assay type in all cases: physicochemical
[1] = Example 1: stability of bilberry extract anthocyanosides, 4 hours at 37° C., pH 7.0, with/without DHLA or GSH (HPLC); conditions: for % left, GSH (4 hours) / Peak Area, GSH (4 hours): 20 mg reduced L-glutathione; for % left, GSH (4 hours) / Peak Area, GSH (4 hours) / % left, DHLA (4 hours) / Peak Area, DHLA (4 hours) / % left, Blank (4 hours) / Peak Area, Blank (4 hours): pH 7.0, 37° C.; for % left, DHLA (4 hours) / Peak Area, DHLA (4 hours): 30 mg dihydrolipoic acid; for Peak Area, Fresh (0 hours): bilberry extract 60 mg/100 ml sodium phosphate buffer pH 7.0, fresh sample; for % left, Blank (4 hours) / Peak Area, Blank (4 hours): unprotected
Experimental: (0.048 mmol anthocyanosides expressed as cyanidin-3-O-glucoside) were added to a 100 ml flask and filled to volume with sodium phosphate buffer (5% [w/w], pH=7.0), and stirred until dissolution was complete. A 1 ml sample was taken immediately and acidified with formic acid to pH=1.0 and analyzed by HPLC for the content of anthocyanosides (Fresh Sample). The remaining solution was kept for 4 hours at 37° C. (water bath) with stirring. Thereafter another sample (Blank sample), representing unprotected degradation, was taken and acidified.
(0.048 mmol expressed as cyanidin-3-O-glucoside) were then added and the flask was filled to volume with sodium phosphate buffer (5% [w/w], pH=7.0) and kept for 4 hours at 37° C. (water bath) with stirring.
Quantitation: External standardization based on linear regression analysis. The response factors of all anthocyanosides separated is quantitified against cyanidin-3-O-glucoside.
Test solutions from incubation experiments (with/without cells and with/without stabilizing agents) were used for analysis after stabilization of anthocyanosides with formic acid. Samples were cleared by filtration prior to injection on to HPLC-system.

[2] = Example 9: stability of bilberry extract anthocyanosides, 4 hours at 37° C., pH 7.0, with/without L-cysteine; conditions: for Peak Area, Fresh solution: bilberry extract 60 mg in buffer pH 7.0, fresh sample; for % left, L-cysteine 20 mg / Peak Area, L-cysteine 20 mg / % left, Blank / Peak Area, Blank: pH 7.0, 37° C., 4 hours; for % left, Blank / Peak Area, Blank: unprotected
Experimental: Sample a) 60 mg bilberry extract [37% anthocyanosides] (0.048 mmol anthocyanosides expressed as cyanidin-3-O-glucoside) were added to a 100 ml flask with 60 ml sodium phosphate buffer (5% [w/w], pH=7.0), and stirred until dissolution was complete. A 1 ml sample was taken immediately and acidified with formic acid to pH=1.0 and analyzed by HPLC for the content of anthocyanosides (Fresh Sample). The remaining solution was kept for 4 hours at 37° C. (water bath) with stirring. Thereafter another sample (Blank sample), representing unprotected degradation, was taken and acidified.
Sample b) 20 mg L-cysteine […] were added to a 100 ml flask with 60 ml sodium phosphate buffer (5% [w/w], pH=7.0) and stirred until dissolution was complete. 60 mg bilberry extract [37% anthocyanosides] (0.048 mmol expressed as cyanidin-3-O-glucoside) were then added to the flask and stir to fully dissolve, then kept for 4 hours at 37° C. (water bath) with stirring.
After 4 hours, samples were taken and acidified immediately with formic acid to pH=1.0 and analyzed by HPLC for the content of anthocyanosides. Degradation is expressed as decrease in peak area of individual peaks (calculated as % left after 4 hours).
Samples were prepared as outlined above in the HPLC Analytical Method. Test stability samples were immediately acidified (to block degradation) and injected undiluted following the detailed description provided below.

[3] = Example 3: stability of black currant extract anthocyanosides, 4 hours at 37° C., pH 7.0, with/without DHLA, GSH or L-cysteine (HPLC); conditions: for Peak Area, Fresh solution: black currant extract 60 mg/100 ml buffer pH 7.0, fresh sample; for % left, DHLA 20 mg / % left, GSH 20 mg / % left, L-cysteine 20 mg / Peak Area, DHLA 20 mg / Peak Area, GSH 20 mg / Peak Area, L-cysteine 20 mg / % left, Blank / Peak Area, Blank: pH 7.0, 37° C., 4 hours; for % left, Blank / Peak Area, Blank: unprotected
Experimental: (§1) Sample a) 60 mg black currant extract [35% anthocyanosides] (0.037 mmol anthocyanosides expressed as cyanidin-3-O-rutinoside) were added to a 100 ml flask and filled to volume with sodium phosphate buffer (5% [w/w], pH=7.0) and stirred until dissolution was complete. A 1 ml sample was taken immediately, acidified with formic acid to pH=1.0 and analyzed by HPLC for the content of anthocyanosides (Fresh Sample). The remaining solution was kept for 4 hours at 37° C. (water bath) with stirring. Thereafter samples (Blank sample), representing unprotected degradation, were taken and acidified.
(§2) Sample b) 20 mg reduced L-glutathione (0.065 mmol) were added to a 100 ml flask with 60 ml sodium phosphate buffer (5% [w/w], pH=7.0) and stirred until dissolution was complete. 60 mg black currant extract [35% anthocyanosides] (0.037 mmol anthocyanosides expressed as cyanidin-3-O-rutinoside) were then added and the flask was filled to volume with sodium phosphate buffer (5% [w/w], pH=7.0) and kept for 4 hours at 37° C. (water bath) with stirring.
as §2, with “Sample c)” for “Sample b)”, “mg dihydrolipoic acid (0.096” for “mg reduced L-glutathione (0.065”, “was completed.” for “was complete.”, “were” for “were then”, “added to” for “added and”, “the flask,” for “the flask was”
as §2, with “Sample d)” for “Sample b)”, “mg L-cysteine acid (0.165” for “mg reduced L-glutathione (0.065”, “were” for “were then”, “added to” for “added and”, “the flask,” for “the flask was”
After 4 hours samples were taken, acidified immediately with formic acid to pH=1.0 and analyzed by HPLC for the content of anthocyanosides. Degradation is expressed as decrease in peak area of individual peaks (calculated as % left after 4 hours).
(§3) Samples were prepared as outlined below in HPLC Analytical Method. Test stability samples were immediately acidified (to block degradation) and injected undiluted following the detailed description provided below.
HPLC Analytical Method (Materials, Instruments and Methods): […]

[4] = Example 5: degradation over time of black currant anthocyanosides at 37° C., pH 7.0, with/without GSH (HPLC); conditions: pH 7.0, 37° C.; for %-residual anthocyanosides (% left): 4 hours
Experimental: as §1, with “flask,” for “flask and”, “anthocyanosides.” for “anthocyanosides (Fresh Sample).”, “kept” for “kept for 4 hours”, “stirring and 1 ml” for “stirring. Thereafter”, “Samples),” for “sample),”, “every 15 minutes. The samples were analyzed for selected anthocyanosides by HPLC.” for “and acidified.”
as §2, with “added,” for “then added and”, “for” for “for 4 hours”, “stirring. Every 15 minutes 1 ml samples were taken and analyzed for selected anthocyanosides by HPLC.” for “stirring.”
as §3

[5] = GSH protected sample (20 mg), 0:00 h
[6] = GSH protected sample (20 mg), 0:15 h
[7] = GSH protected sample (20 mg), 0:45 h
[8] = GSH protected sample (20 mg), 1:00 h
[9] = GSH protected sample (20 mg), 1:15 h
[10] = GSH protected sample (20 mg), 1:45 h
[11] = GSH protected sample (20 mg), 2:00 h
[12] = GSH protected sample (20 mg), 2:15 h
[13] = GSH protected sample (20 mg), 2:45 h
[14] = GSH protected sample (20 mg), 3:00 h
[15] = GSH protected sample (20 mg), 3:15 h
[16] = GSH protected sample (20 mg), 3:45 h
[17] = GSH protected sample (20 mg), 4:00 h
[18] = GSH protected sample (20 mg), 4:15 h

- % left, GSH (4 hours) [1]: 80.7%
- Peak Area, GSH (4 hours) [1]: 797.5
- % left, DHLA (4 hours) [1]: 67.9%
- Peak Area, DHLA (4 hours) [1]: 671.1
- Peak Area, Fresh (0 hours) [1]: 987.9
- % left, Blank (4 hours) [1]: 41.5%
- Peak Area, Blank (4 hours) [1]: 410.3
- Peak Area, Fresh solution [2]: 987.9
- % left, L-cysteine 20 mg [2]: 80.7%
- Peak Area, L-cysteine 20 mg [2]: 797.5
- % left, Blank [2]: 41.5%
- Peak Area, Blank [2]: 410.3
- Peak Area, Fresh solution [3]: 491.1
- % left, DHLA 20 mg [3]: 51.7%
- % left, GSH 20 mg [3]: 64.3%
- % left, L-cysteine 20 mg [3]: 38.0%
- Peak Area, DHLA 20 mg [3]: 254.1
- Peak Area, GSH 20 mg [3]: 315.7
- Peak Area, L-cysteine 20 mg [3]: 186.8
- % left, Blank [3]: 31.4%
- Peak Area, Blank [3]: 154.0
- Peak Area ([4]; Blank sample, 0:00 h): 491.1
- Peak Area ([4]; Blank sample, 0:15 h): 368.9
- Peak Area ([4]; Blank sample, 0:30 h): 361.9
- Peak Area ([4]; Blank sample, 0:45 h): 321.0
- Peak Area ([4]; Blank sample, 1:00 h): 312.0
- Peak Area ([4]; Blank sample, 1:30 h): 293.4
- Peak Area ([4]; Blank sample, 1:45 h): 283.8
- Peak Area ([4]; Blank sample, 2:00 h): 256.7
- Peak Area ([4]; Blank sample, 2:15 h): 250.3
- Peak Area ([4]; Blank sample, 2:30 h): 243.9
- Peak Area ([4]; Blank sample, 2:45 h): 226.8
- Peak Area ([4]; Blank sample, 3:00 h): 213.7
- Peak Area ([4]; Blank sample, 3:15 h): 204.9
- Peak Area ([4]; Blank sample, 3:30 h): 180.1
- Peak Area ([4]; Blank sample, 3:45 h): 181.6
- Peak Area ([4]; Blank sample, 4:00 h): 154.0
- %-residual anthocyanosides (% left) ([4]; Blank): 31%
- Peak Area [4, 5]: 480.6
- Peak Area [4, 6]: 426.1
- Peak Area [4, 7]: 418.6
- Peak Area [4, 8]: 423.8
- Peak Area [4, 9]: 415.3
- Peak Area [4, 10]: 376.4
- Peak Area [4, 11]: 387.6
- Peak Area [4, 12]: 356.5
- Peak Area [4, 13]: 337.5
- Peak Area [4, 14]: 349.5
- Peak Area [4, 15]: 325.6
- Peak Area [4, 16]: 312.6
- Peak Area [4, 17]: 315.7
- Peak Area [4, 18]: 300.3
- %-residual anthocyanosides (% left) ([4]; GSH-protected): 66%
SMILES: OC[C@H]1O[C@@H](Oc2cc3c(O)cc(O)cc3[o+]c2-c2ccc(O)c(O)c2)[C@H](O)[C@@H](O)[C@@H]1O [Cn-3O-Glc, Cyanidin 3-o-glucoside]

- % left, GSH (4 hours) [1]: 48.3%
- Peak Area, GSH (4 hours) [1]: 350.8
- % left, DHLA (4 hours) [1]: 57.1%
- Peak Area, DHLA (4 hours) [1]: 414.8
- Peak Area, Fresh (0 hours) [1]: 726.6
- % left, Blank (4 hours) [1]: 6.4%
- Peak Area, Blank (4 hours) [1]: 46.3
- Peak Area, Fresh solution [2]: 726.6
- % left, L-cysteine 20 mg [2]: 48.3%
- Peak Area, L-cysteine 20 mg [2]: 350.8
- % left, Blank [2]: 6.4%
- Peak Area, Blank [2]: 46.3
- Peak Area, Fresh solution [3]: 1481
- % left, DHLA 20 mg [3]: 52.0%
- % left, GSH 20 mg [3]: 50.4%
- % left, L-cysteine 20 mg [3]: 36.7%
- Peak Area, DHLA 20 mg [3]: 770.7
- Peak Area, GSH 20 mg [3]: 745.6
- Peak Area, L-cysteine 20 mg [3]: 543.0
- % left, Blank [3]: 9.5%
- Peak Area, Blank [3]: 140.8
- Peak Area ([4]; Blank sample, 0:00 h): 1480.7
- Peak Area ([4]; Blank sample, 0:15 h): 969.6
- Peak Area ([4]; Blank sample, 0:30 h): 907.9
- Peak Area ([4]; Blank sample, 0:45 h): 745.2
- Peak Area ([4]; Blank sample, 1:00 h): 702.1
- Peak Area ([4]; Blank sample, 1:30 h): 605.4
- Peak Area ([4]; Blank sample, 1:45 h): 599.9
- Peak Area ([4]; Blank sample, 2:00 h): 465.1
- Peak Area ([4]; Blank sample, 2:15 h): 449.8
- Peak Area ([4]; Blank sample, 2:30 h): 394.0
- Peak Area ([4]; Blank sample, 2:45 h): 362.7
- Peak Area ([4]; Blank sample, 3:00 h): 304.8
- Peak Area ([4]; Blank sample, 3:15 h): 285.1
- Peak Area ([4]; Blank sample, 3:30 h): 208.8
- Peak Area ([4]; Blank sample, 3:45 h): 214.5
- Peak Area ([4]; Blank sample, 4:00 h): 140.8
- %-residual anthocyanosides (% left) ([4]; Blank): 10%
- Peak Area [4, 5]: 1464.0
- Peak Area [4, 6]: 1280.4
- Peak Area [4, 7]: 1209.3
- Peak Area [4, 8]: 1219.0
- Peak Area [4, 9]: 1178.1
- Peak Area [4, 10]: 1051.8
- Peak Area [4, 11]: 1077.0
- Peak Area [4, 12]: 981.9
- Peak Area [4, 13]: 876.8
- Peak Area [4, 14]: 917.2
- Peak Area [4, 15]: 812.5
- Peak Area [4, 16]: 742.7
- Peak Area [4, 17]: 745.6
- Peak Area [4, 18]: 682.0
- %-residual anthocyanosides (% left) ([4]; GSH-protected): 51%
SMILES: OC[C@H]1O[C@@H](Oc2cc3c(O)cc(O)cc3[o+]c2-c2cc(O)c(O)c(O)c2)[C@H](O)[C@@H](O)[C@@H]1O [Dp-3O-Glc, Delphinidin 3-o-glucoside]

— US8623429B2, “Stabilized anthocyanin compositions” (Omnica GmbH, priority 2007, dated 2014)
